Experimental data from patent publication US8008354B2, “Death receptor sensitizing compounds and methods of use therefor” (Burnham Institute for Medical Research, priority 2006, dated 2011).

What was measured:
[1] = system: PPC-1, OVCAR-3, T47D, MDA-MB-468 and DU 145 cells; assay: MTS viability with CH-11 after FLIP siRNA transfection; type: cell-based; details: PPC-1 cells transfected with FLIP siRNA 10 nM
Description: FIG. 8. Decreases in FLIP by compound 5809354 are functionally important. (A) PPC-1, OVCAR-3, T47D, and DU 145 cells (2×10^5) were seeded into 35 mm plates and transfected with double-stranded siRNA targeting FLIP (f), control ds RNA (c), or mock transfected with buffer alone (m). At 24 hours after transfection, cells were treated with CH-11 (100 ng/mL) or buffer control. Cell viability was measured by an MTS assay and expressed as a percentage of untreated control cells (mean+SD; n=3). (B) Levels of FLIP protein were measured by immunoblotting. (C) PPC-1 cells (2×10^5) were seeded into 35 mm plates and transfected with siRNAs (10 nM) targeting FLIP or luciferase as a control (CNTRL). At 24 hours after transfection, cells were treated with increasing concentrations of 5809354 with or without CH-11 anti-FAS antibody (100 ng/mL) for an additional 24 hours. Cell viability was measured by an MTS assay, and expressed as a percentage of control untreated cells (mean+SD; n=3).
Transfection of siRNA oligonucleotides. […]
To test the functional importance of decreases in FLIP by 5809354, it was determined whether knocking down FLIP could recapitulate the activity of the molecule and abrogate 5809354's ability to sensitize cells to CH-11. […]

[2] = system: PPC-1 cells; assay: MTS viability of adherent PPC-1 cells with or without CH-11, thirty hours; type: cell-based, human; details: CH-11 100 ng/mL
Description: FIG. 13. Small molecule down-regulation of FLIP sensitizes prostate cancer cells to anoikis. (A) PPC-1 cells were seeded overnight in adherent conditions and then treated with increasing concentrations of 5809354 for 16 hours. After incubation, cells were harvested. Total cellular RNA was extracted and mRNA levels of the long isoform of FLIP (FLIPL), the short isoform of FLIP (FLIPS), or rRNA levels of 18S were detected by real-time RT-PCR. Data were normalized using the ΔΔCT method and expressed as the mean±SEM percent of […] expression relative to untreated controls. (B) PPC-1 cells were cultured and treated as in panel A. Total cellular protein was isolated and analyzed by SDS-PAGE immunoblotting using anti-FLIP and anti-Actin antibodies. […] Thirty hours after incubation, cell viability was determined using the MTS assay. […] After incubation, apoptosis was measured by flow cytometry to detect cell surface annexin V expression and PI. […] (E) Cells were harvested, fixed, stained with DAPI, and nuclear morphology analyzed by fluorescence microscopy. […] One week later, cells were stained with methylene blue and the number of colonies counted. […]
Cell viability apoptosis, colony formation, and caspase activation assays. Cell viability was assessed using the MTS reduction assay (Promega, Madison, Wis., USA) according to the manufacturer's protocols and as described in Schimmer et al. (2006). […]

4-(4-chloro-2-methylphenoxy)-N-hydroxybutanamide [compound 5809354]
enhancement of CH-11-mediated killing in the presence of FLIP siRNA [1]: the longer enhanced CH-11-mediated killing
viability in the presence of Fas-activating antibody (CH-11) [2]: decreases in viability
